SMILES strings stand for the structures. Where two headings read alike, the source gives them in different places. Bounds are passed on as bounds.

22 compounds from patent publication US9249102B2 (priority 2012, dated 2016) can be followed below.

For one test, the system named is Haemonchus contortus. As to the kind of experiment: Method A: Haemonchus contortus L1 larvae, microtitre plate screen. To be noted: 96 h, read-out: motility inhibition.
Test [1] has as its system microfilaria of Dirofilaria immitis. Description: Method F: microfilaria of Dirofilaria immitis, survival at 24 hours.
The test system of another test is Cooperia oncophora. Description: Method C: Cooperia oncophora L1 larvae in vitro. The settings on record: 96 h, read-out: inhibition of motility.
The mark [2] stands for this setting: survival of microfilaria at 24 hours.

By inhibition is commonly meant the percentage by which the read-out fell short of the control. A word on the EC50: it is the midpoint of the concentration-response curve. A higher EC50 goes with a less potent agent. For the compound `C[C@@H]([C@H]1Cc2cc(F)ccc2O1)N1CCN(C(=O)COC2CCC(Nc3ccc([N+](=O)[O-])c(C(F)(F)F)c3)CC2)CC1` (relative stereo) [Compound 260, 1-(4-((S)-1-((R)-5-fluoro-2,3-dihydrobenzofuran-2-yl)ethyl)piperazin-1-yl)-2-(4-(4-nitro-3-(trifluoromethyl)phenylamino)cyclohexyloxy)ethanone], the inhibition at 5 µg/mL with Haemonchus contortus and in the test with Cooperia oncophora was not below 90% in each case. This compound also gave an EC50 in test [1] (setting [2]) of less than 1 µg/mL.

As for `O=C(CO[C@H]1CC[C@H](Nc2ccc([N+](=O)[O-])c(C(F)(F)F)c2)CC1)N1CCN(CC2Cc3cc(Cl)ccc3O2)CC1` (some centres unmarked) [Compound 76, 1-[4-[(5-chloro-2,3-dihydro-1-benzofuran-2-yl)methyl]piperazin-1-yl]-2-[(4-[[4-nitro-3-(trifluoromethyl)phenyl]amino]cyclohexyl)oxy]ethan-1-one], the inhibition at 5 µg/mL in the test with Haemonchus contortus and in the test with Cooperia oncophora was not below 90% throughout. In test [1], this compound had an EC50 of less than 5 µg/mL.

For the compound `O=C(CO[C@H]1CC[C@H](Nc2ccc([N+](=O)[O-])c(C(F)(F)F)c2)CC1)N1CCN(c2ccc3cc(Cl)ccc3n2)CC1` [Compound 90, 1-[4-(6-chloroquinolin-2-yl)piperazin-1-yl]-2-[(4-[[4-nitro-3-(trifluoromethyl)phenyl]amino]cyclohexyl)oxy]ethan-1-one], the inhibition at 5 µg/mL with Haemonchus contortus and in the test on Cooperia oncophora was not below 90% throughout. Also, the EC50 in test [1] (setting [2]) was less than 0.1 µg/mL.

As for `Cc1cc(N2CCN(C(=O)CO[C@H]3CC[C@H](Nc4ccc([N+](=O)[O-])c(C(F)(F)F)c4)CC3)CC2)nc2ccc(F)cc12` [Compound 99, 1-[4-(6-fluoro-4-methyl-2-quinolyl)piperazin-1-yl]-2-[4-[4-nitro-3-(trifluoromethyl)anilino]cyclohexoxy]ethanone], the inhibition at 5 µg/mL in the test with Haemonchus contortus and in the test with Cooperia oncophora was not below 90% in each case. Moreover, the EC50 in test [1] (setting [2]) is less than 1 µg/mL.

`O=C(CO[C@H]1CC[C@H](Nc2ccc([N+](=O)[O-])c(C(F)(F)F)c2)CC1)N1CCN(C(=O)c2cc3cc(C(F)(F)F)ccc3o2)CC1` [Compound 183, 2-[(4-[[4-nitro-3-(trifluoromethyl)phenyl]amino]cyclohexan-1-e)oxy]-1-(4-[[5-(trifluoromethyl)-1-benzofuran-2-yl]carbonyl]piperazin-1-yl)ethan-1-one]: the inhibition at 5 µg/mL in the test with Haemonchus contortus and in the test with Cooperia oncophora was not below 90% in each case. The EC50 in test [1] (setting [2]) is less than 1 µg/mL.

On to `O=C(CO[C@H]1CC[C@H](Nc2ccc([N+](=O)[O-])c(C(F)(F)F)c2)CC1)N1CCN(c2nc3cc(F)ccc3s2)CC1` [Compound 237, 1-[4-(5-fluoro-1,3-benzothiazol-2-yl)piperazin-1-yl]-2-[[4-[[4-nitro-3-(trifluoromethyl)pheny-1]amino]cyclohexyl]oxy]ethan-1-one], for which the inhibition at 5 µg/mL in the test on Haemonchus contortus and in the test on Cooperia oncophora was not below 90% each time. In test [1] (setting [2]), this compound gave an EC50 of less than 0.1 µg/mL.

Regarding `CN(c1ccc([N+](=O)[O-])c(C(F)(F)F)c1)[C@H]1CC[C@H](OCC(=O)N2CCN(c3ccc4cc(Cl)ccc4n3)CC2)CC1` [Compound 246, 1-[4-(6-chloroquinolin-2-yl)piperazin-1-yl]-2-[[4-[methyl[4-nitro-3-(trifluoromethyl)phenyl]amino]cyclohexyl]oxy]ethan-1-one], the inhibition at 5 µg/mL with Haemonchus contortus and in the test with Cooperia oncophora was not below 90% each time. This compound also showed an EC50 in test [1] of less than 1 µg/mL.

As to `O=C(COC1CCC(Nc2ccc([N+](=O)[O-])c(C(F)(F)F)c2)CC1)N1CCN(c2ccc3cc(Br)ccc3n2)CC1` (centres unmarked) [Compound 266, 2-[[4-[(4-nitro-3-trifluoromethyl-phenyl)amino]cyclohexyl]oxy]-1-[4-(6-bromoquinolin-2-yl)piperazin-1-yl]ethan-1-one], the inhibition at 5 µg/mL in the test with Haemonchus contortus and with Cooperia oncophora was not below 90% in each case. Besides, in test [1] (setting [2]), the EC50 was less than 0.1 µg/mL.

As for `CN(c1ccc([N+](=O)[O-])c(C(F)(F)F)c1)[C@H]1CC[C@H](OCC(=O)N2CCN(c3ccc4cc(Br)ccc4n3)CC2)CC1` [Compound 269, 2-[(4-[methyl-[4-nitro-3-(trifluoromethyl)phenyl]amino]cyclohexyl)-oxy]1-[4-(6-bromoquinolin-2-yl)piperazin-1-yl]ethan-1-one], the inhibition at 5 µg/mL with Haemonchus contortus and in the test on Cooperia oncophora was not below 90% each time. In test [1] (setting [2]), this compound registered an EC50 of less than 5 µg/mL.

As to `CN(c1ccc([N+](=O)[O-])c(C(F)(F)F)c1)[C@H]1CC[C@H](OCC(=O)N2CCN(Cc3cc4cc(Cl)ccc4o3)CC2)CC1` [Compound 275, 2-[(4-[methyl[4-nitro-3-(trifluoromethyl)phenyl]amino]cyclohexyl)-oxy]1-[4-(5-chlorobenzofuran-2-ylmethyl)piperazin-1-yl]ethan-1-one], in the test with Haemonchus contortus, the inhibition at 5 µg/mL is not below 90%. Besides, in test [1] (setting [2]), the EC50 was less than 1 µg/mL.

For the compound `Cc1cc(N2CCN(C(=O)CO[C@H]3CC[C@H](Nc4ccc([N+](=O)[O-])c(C(F)(F)F)c4)CC3)CC2)nc2ccc(Br)cc12` [Compound 277, 1-[4-(6-bromo-4-methyl-2-quinolyl)piperazin-1-yl]-2-[4-[4-nitro-3-(trifluoromethyl)anilino]cyclohexoxy]ethanone], the inhibition at 5 µg/mL in the test on Haemonchus contortus was not below 90%. Moreover, the EC50 in test [1] (setting [2]) was less than 5 µg/mL.

As to `N#Cc1ccc(N[C@H]2CC[C@H](OCC(=O)N3CCN(c4ccc5cc(F)ccc5c4)CC3)CC2)cc1C(F)(F)F` [Compound 279, 4-(4-{2-[4-(6-fluoro-naphthalen-2-yl)-piperazin-1-yl]-2-oxo-ethoxy}-cyclohexylamino)-2-trifluoromethyl-benzonitrile], in the test with Haemonchus contortus, the inhibition at 5 µg/mL is not below 90%. This compound also yielded a half-maximal effective concentration (EC50) in test [1] (setting [2]) of less than 5 µg/mL.

Turning to `CN(c1ccc(C#N)c(C(F)(F)F)c1)[C@H]1CC[C@H](OCC(=O)N2CCN(c3ccc4cc(Br)ccc4n3)CC2)CC1` [Compound 281, 2-[(4-[methyl[4-cyano-3-(trifluoromethyl)phenyl]amino]cyclohexyl)-oxy]-1-[4-(6-bromoquinolin-2-yl)piperazin-1-yl]ethan-1-one], the inhibition at 5 µg/mL with Haemonchus contortus and with Cooperia oncophora was not below 90% in each case.

Regarding `CN(c1ccc(C#N)c(C(F)(F)F)c1)[C@H]1CC[C@H](OCC(=O)N2CCN(c3ccc4cc(Cl)ccc4n3)CC2)CC1` [Compound 282, 2-[(4-[methyl[4-cyano-3-(trifluoromethyl)phenyl]amino]cyclohexyl)-oxy]1-[4-(6-chloroquinolin-2-yl)-piperazin-1-yl]ethan-1-one], the inhibition at 5 µg/mL in the test with Haemonchus contortus and with Cooperia oncophora was not below 90% each time.

`O=C(CO[C@H]1CC[C@H](Nc2ccc([N+](=O)[O-])c(C(F)(F)F)c2)CC1)N1CCN(c2ccc3cc(F)ccc3c2F)CC1` [Compound 289, 1-[4-(1,6-difluoro-naphthalen-2-yl)-piperazin-1-yl]-2-[4-(4-nitro-3-trifluoromethyl-phenylamino)-cyclohexyloxy]-ethanone]: the inhibition at 5 µg/mL in the test on Haemonchus contortus and with Cooperia oncophora was not below 90% throughout.

Take `N#Cc1ccc(N[C@H]2CC[C@H](OCC(=O)N3CCN(Cc4oc5ccc(C(F)(F)F)cc5c4Cl)CC3)CC2)cc1C(F)(F)F` [Compound 305, 4-(4-{2-[4-(3-chloro-5-trifluoromethyl-benzofuran-2-ylmethyl)-piperazin-1-yl]-2-oxo-ethoxy}-cyclohexylamino)-2-trifluoromethyl-benzonitrile]: in the test on Haemonchus contortus, the inhibition at 5 µg/mL is not below 90%. Besides, the EC50 in test [1] (setting [2]) is less than 0.1 µg/mL.

For the compound `C[C@@H]1CN(CC2Cc3cc(F)ccc3O2)[C@@H](C)CN1C(=O)CO[C@H]1CC[C@H](Nc2ccc(C#N)c(C(F)(F)F)c2)CC1` (stereo partly drawn) [Compound 308, 4-(4-{2-[(2R,5S)-4-(5-fluoro-2,3-dihydro-benzofuran-2-ylmethyl)-2,5-dimethyl-piperazin-1-yl]-2-oxo-ethoxy}-cyclohexylamino)-2-trifluoromethyl-benzonitrile], the inhibition at 5 µg/mL in the test on Haemonchus contortus was not below 90%. In test [1], this compound registered an EC50 of less than 0.1 µg/mL.

Take `O=C(CO[C@H]1CC[C@H](Nc2ccc([N+](=O)[O-])c(C(F)(F)F)c2)CC1)N1CC2CCC1CN2CC1Cc2cc(F)ccc2O1` (some centres unmarked) [Compound 309, 1-[5-(5-fluoro-2,3-dihydro-benzofuran-2-ylmethyl)-2,5-diaza-bicyclo[2.2.2]oct-2-yl]-2-[4-(4-nitro-3-trifluoromethyl-phenylamino)-cyclohexyloxy]-ethanone]: in the test with Haemonchus contortus, the inhibition at 5 µg/mL was not below 90%. Further, in test [1] (setting [2]), the EC50 is less than 0.1 µg/mL.

As to `O=C(CO[C@H]1CC[C@H](Nc2ccc([N+](=O)[O-])c(C(F)(F)F)c2)CC1)N1CCN(Cc2cc3cc(OC(F)(F)F)ccc3o2)CC1` [Compound 326, 2-[(4-[[4-nitro-3-(trifluoromethyl)phenyl]amino]cyclohexyl)-oxy]1-[4-[5-(trifluoromethoxy)benzofuran-2-ylmethyl]piperazin-1-yl]ethan-1-one], the inhibition at 5 µg/mL in the test with Haemonchus contortus and in the test on Cooperia oncophora was not below 90% each time.

In the case of `O=C(CO[C@H]1CC[C@H](Nc2ccc(S(=O)(=O)C(F)(F)F)cc2)CC1)N1CCN(c2ccc3cc(C(F)(F)F)ccc3n2)CC1` [Compound 331, 1-[4-[6-(trifluoromethyl)-2-quinolyl]piperazin-1-yl]-2-[4-[4-(trifluoromethylsulfonyl)anilino]cyclohexoxy]ethanone], the inhibition at 5 µg/mL with Haemonchus contortus and with Cooperia oncophora was not below 90% each time.

On to `CC(c1nc2cc(C(F)(F)F)ccc2s1)N1CCN(C(=O)CO[C@H]2CC[C@H](Nc3ccc([N+](=O)[O-])c(C(F)(F)F)c3)CC2)CC1` (some centres unmarked) [Compound 343, 2-[4-(4-nitro-3-trifluoromethyl-phenylamino)-cyclohexyloxy]-1-{4-[1-(5-trifluoromethyl-benzothiazol-2-yl)-ethyl]-piperazin-1-yl}-ethanone], for which the inhibition at 5 µg/mL with Haemonchus contortus and with Cooperia oncophora was not below 90% throughout.

On to `O=C(CO[C@H]1CC[C@H](Nc2ccc(S(=O)(=O)C(F)(F)F)cc2)CC1)N1CCN(Cc2nc3cc(C(F)(F)F)ccc3s2)CC1` [Compound 344, 1-[4-[[5-(trifluoromethyl)-1,3-benzothiazol-2-yl]methyl]piperazin-1-yl]-2-[4-[4-(trifluoromethylsulfonyl)anilino]cyclohexoxy]ethanone], for which the inhibition at 5 µg/mL with Haemonchus contortus and in the test with Cooperia oncophora was not below 90% in each case.
